Reference: US8008491B2, “Substituted AZA-indoles as inhibitors of poly(ADP-ribose) polymerase (PARP)” (Aventis Pharmaceuticals, Inc., priority 2003, dated 2011)

Tests used:
[1] = system: Male Fisher 344 rats; assay: Stroke model: middle cerebral artery (MCA) occlusion, infarct volume; type: in vivo, rat; conditions: total dose 40 mg/kg i.v. (10 mg/kg bolus plus 5 mg/kg/hr for 6 hrs) 15 min after MCA occlusion; 48 hours post-occlusion
Method: Male Fisher 344 rats are anesthetized. The right carotid artery is isolated and ligated, and the right jugular vein is canulated for compound administration. The middle cerebral artery (MCA) was exposed through a craniotomy, and the MCA and its right branch, the lenticulostriate artery are electrocoagulated. The arteries are cut to avoid recanalization. […] The compounds are given as a 10 mg/kg bolus followed by an infusion of 5 mg/kg/hr for 6 hrs (total dose 40 mg/kg).
48 Hours post-MCA occlusion the rats are sacrificed, and the brains removed and cut into 2-mm coronal sections.
A total dose of 40 mg/kg of 2-(piperazin-1-yl)-1-phenyl-1H-indole-3-carboxaldehyde (Example 3) is given as bolus plus infusion as described above.

[2] = target: human PARP (PARP1) (Homo sapiens, UniProt P09874); assay: PARP enzyme assay of Table 3 (radioactive enzyme assay or 'ELISA' enzyme assay); conditions: IC50 (μM), fifty percent inhibitory concentration; recombinant human PARP;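 further: Baculovirus-expressed PARP1 from insect cells, activity read as tritium from labeled NAD in acid-precipitated protein, or as biotin-NAD built into plate-bound histone by absorbance at 450 nm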
Method: The compounds of this invention are then tested with this enzyme preparation using either the radioactive enzyme assay or by the “ELISA” enzyme assay as set forth below.
Incorporation of radioactivity from labeled NAD into acid-precipitated protein is measured. The reaction mixture (volume 100 μL or 50 μL, in a test-tube or 96-well plate) contained 100 μg/mL calf thymus DNA (sonicated), 100 μg/mL histones, 100 mM Tris (pH 8.0), 1.0 mM DTT, 10 mM MgCl2, NAD (200 μm, 0.65 microcurie/mL), and varying amounts of enzyme. The reaction was incubated for 10 min at 37° C. or at room temperature for 60 min. The reaction was stopped and protein precipitated by addition of ice-cold trichloroacetic acid (TCA; 10% or 20% aqueous w/v). After brief storage in ice or at 4° C. for 2 hrs, the reaction mixture is filtered under vacuum through a glass fiber filter (2.5 cm disc, or 96-well filter plate). After washing with TCA and ethanol, the filter is dried and counted for tritium CPM after addition of scintillation fluid.
Incorporation of biotin-NAD into histone coated on plate is measured. A 96-well protein-binding EIA plate is coated with histone and blocked with bovine serum albumin. The reaction mixture (50 μL) contained DNA, buffer, enzyme, (test compound), and 250 μM of NAD and 5 μL of biotin-NAD (Trevigen). After reaction at room temperature the wells are washed and treated with Extravidin (Sigma). After incubation and washing color is developed with the peroxidase substrate TMB (Sigma). The TMB reaction is quenched with 2M sulfurric acid and the absorbance at 450 nm is read.

[3] = system: HL-60 (human leukemia) cells; assay: Cell-based assay: protection from cell death induced by serum deprivation (Alamar Blue); conditions: median effective concentration preventing cell death, HL-60, 0.1% FCS, 24 hr
Method: HL-60 (human leukemia) cells are grown and maintained using standard procedures in RPMI 1640+Glutamax medium supplemented with 10% fetal calf serum (FCS). For assay, cells are suspended in medium supplemented with 0.1% FCS at 0.5 million cells/mL and seeded into 96 well plates (100 μL/well). After preincubation for 3 hrs, cells are treated with compound for 1 hr, then Alamar Blue (Serotec) is added to the cells. After a further 24 hr incubation, fluorescence is measured (ex 560 nm, em 590 nm). Decrease in fluorescence compared to control cells (10 μM of a potent PARP inhibitor) is a measure of cell death. Increased fluorescence in the presence of test compound indicates protection from cell death induced by serum deprivation. For detection of polyADP-ribosylation, cells are subjected to serum deprivation in the presence and absence of compound. Cells are lysed and proteins are run on an SDS-PAGE gel. PolyADP-ribosylated proteins are detected with antibody to polyADP-ribose (Alexis or Calbiochem).
The results obtained from this study are expressed as EC50 (median effective concentration of the test compound that was effective in preventing the cell death—expressed in micromolar (μM) concentration) for each of the tested compounds and are summarized in Table 4.

[4] = system: Male Sprague-Dawley rats; assay: Myocardial ischemia model: coronary artery occlusion and reperfusion, infarct size; type: in vivo, rat; conditions: 20 min occlusion, 60 min reperfusion
Text: Male Sprague-Dawley rats are anesthetized and the chest is opened. A thin silk thread is placed around the left anterior descending coronary artery. The silk is passed through a plastic tube and the chest is closed. After stable hemodynamics, the coronary artery is occluded by applying tension to the thread via the tube. Successful occlusion is confirmed by a decrease in systolic blood pressure and alterations in ECG. Reperfusion is initiated by releasing the tension on the ligature.
For testing efficacy of Example 3 in this animal model, animals are divided into three groups. One group received the compound of Example 3 at 10 mg/kg i.v. 10 min prior to occlusion. A second group received compound of Example 3 at the same dose 5 min prior to reperfusion. The third group served as vehicle control. The period of occlusion is 20 min, followed by reperfusion for 60 min. After sacrifice infarct size is measured by staining of heart tissue slices with triphenyltetrazolium chloride and expressed as a percent (%) of area at risk.
A similar study is carried out with cariporide, a reference standard.

human PARP (PARP1), sequence (P09874 whole entry): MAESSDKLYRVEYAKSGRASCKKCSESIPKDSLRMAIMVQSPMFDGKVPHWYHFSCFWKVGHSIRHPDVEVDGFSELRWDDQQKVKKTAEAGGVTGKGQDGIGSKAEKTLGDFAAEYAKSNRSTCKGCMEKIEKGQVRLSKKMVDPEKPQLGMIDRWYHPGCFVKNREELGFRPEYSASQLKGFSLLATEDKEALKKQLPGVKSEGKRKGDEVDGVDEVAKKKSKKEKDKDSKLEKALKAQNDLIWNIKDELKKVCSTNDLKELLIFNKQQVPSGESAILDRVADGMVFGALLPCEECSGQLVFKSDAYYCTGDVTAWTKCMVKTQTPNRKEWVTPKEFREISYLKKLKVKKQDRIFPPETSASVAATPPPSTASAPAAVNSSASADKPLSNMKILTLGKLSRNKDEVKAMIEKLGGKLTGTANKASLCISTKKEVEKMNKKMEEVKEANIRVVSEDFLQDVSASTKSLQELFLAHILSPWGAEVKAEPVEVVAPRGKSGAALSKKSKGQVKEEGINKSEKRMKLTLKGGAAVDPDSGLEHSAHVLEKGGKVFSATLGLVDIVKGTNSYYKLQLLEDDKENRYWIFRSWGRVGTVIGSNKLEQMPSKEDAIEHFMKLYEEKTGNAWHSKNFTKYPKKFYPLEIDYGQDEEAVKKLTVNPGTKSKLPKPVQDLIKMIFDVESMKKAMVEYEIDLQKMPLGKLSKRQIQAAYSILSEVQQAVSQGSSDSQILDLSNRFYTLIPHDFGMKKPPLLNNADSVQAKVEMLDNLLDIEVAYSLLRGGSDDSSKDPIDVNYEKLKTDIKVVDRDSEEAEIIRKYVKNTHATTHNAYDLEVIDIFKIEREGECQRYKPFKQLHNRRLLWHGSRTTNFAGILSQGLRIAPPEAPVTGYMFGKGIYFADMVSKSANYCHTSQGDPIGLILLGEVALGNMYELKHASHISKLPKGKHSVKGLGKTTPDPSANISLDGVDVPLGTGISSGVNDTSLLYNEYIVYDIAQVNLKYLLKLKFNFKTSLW

IC50 [2]: 2.5 µM
SMILES: O=Cc1c(N2CCNCC2)n(-c2ccccc2)c2ccccc12 [Example 3, 2-(Piperazin-1-yl)-1-phenyl-1H-indole-3-carboxaldehyde]
reduction in infarct volume [1]: 40-50%
EC50 [3]: 1900 nM
infarct size (% of area at risk), effect when given prior to reperfusion ([4]; 10 mg/kg i.v. 5 min prior to reperfusion (Example 3)): small but significant effect
infarct size (% of area at risk), effect when given prior to ischemia ([4]; 10 mg/kg i.v. 10 min prior to occlusion (Example 3)): significant protection
